Measurements from patent US8691800B2, “Quinoline derivatives as antibacterial agents” (Janssen Pharmaceutica N.V., priority 2005, dated 2014).
≈ marks a conversion by molar mass, not a printed value.

Experiments:
[1] = test system: Staphylococcus aureus (ATCC29213); experiment: Microtitre plate assay, IC90 for bacterial growth; type: cell-based; conditions: 90% inhibitory concentration for bacterial growth, 24 hours at 37° C., resazurin; for IC90: Staphylococcus aureus, ATCC29213, 24 h, read-out: IC90 STA 29213
Method: (§1) The bacteria used in this study were grown overnight in flasks containing 100 ml Mueller-Hinton Broth (Becton Dickinson—cat. no. 275730) in sterile de-ionized water, with shaking, at 37° C. Stocks (0.5 ml/tube) were stored at 70° C. until use. Bacteria titrations were performed in microtiter plates and colony forming units (CFUs) were determined. In general, an inoculum level of approximately 100 CFUs was used for susceptibility testing.
(§2) Anti bacterial Susceptibility Testing: IC90 Determination
(§3) Flat-bottom, sterile 96-well plastic microtiter plates were filled with 180 μl of sterile deionized water, supplemented with 0.25% BSA. Subsequently, stock solutions (7.8× final test concentration) of compounds were added in 45 μl volumes in column 2. Serial five-fold dilutions (45 μl in 180 μl) were made directly in the microtiter plates from column 2 to reach column 11. Untreated control samples with (column 1) and without (column 12) inoculum were included in each microtiter plate. Depending on the bacteria type, approximately 10 to 60 CFU per well of bacteria inoculum (100 TCID50), in a volume of 100 μl in 2.8× Mueller-Hinton broth medium, was added to the rows A to H, except column 12. The same volume of broth medium without inoculum was added to column 12 in row A to H. The cultures were incubated at 37° C. for 24 hours under a normal atmosphere (incubator with open air valve and continuous ventilation). At the end of incubation, one day after inoculation, the bacterial growth was quantitated fluorometrically. Therefore resazurin (0.6 mg/ml) was added in a volume of 20 μl to all wells 3 hours after inoculation, and the plates were re-incubated overnight. A change in colour from blue to pink indicated the growth of bacteria. The fluorescence was read in a computer-controlled fluorometer (Cytofluor Biosearch) at an excitation wavelength of 530 nm and an emission wavelength of 590 nm. The % growth inhibition achieved by the compounds was calculated according to standard methods. The IC90 (expressed in μg/ml) was defined as the 90% inhibitory concentration for bacterial growth.

[2] = test system: Enterococcus faecalis (ATCC29212); experiment: Microtitre plate assay, IC90 for bacterial growth; type: cell-based; conditions: for IC90: Enterococcus faecalis, ATCC29212, 90% inhibitory concentration for bacterial growth, read-out: IC90 EFA 29212; for IC90 EFA 29212: 90% inhibitory concentration for bacterial growth
Method: as §1, §2, §3

[3] = test system: Pseudomonas aeruginosa (ATCC27853); experiment: Microtitre plate assay, IC90 for bacterial growth; type: cell-based; conditions: for IC90: Pseudomonas aeruginosa, ATCC27853, 90% inhibitory concentration for bacterial growth, read-out: IC90 PAE 27853; for IC90 PAE 27853: 90% inhibitory concentration for bacterial growth
Method: as §1, §2, §3

[4] = test system: Streptococcus pneumoniae (ATCC6305); experiment: Microtitre plate assay, IC90 for bacterial growth; type: cell-based; conditions: for IC90: Streptococcus pneumoniae, ATCC6305, 90% inhibitory concentration for bacterial growth, read-out: IC90 SPN 6305; for IC90 SPN 6305: 90% inhibitory concentration for bacterial growth
Method: as §1, §2, §3

[5] = test system: Streptococcus pyogens (ATCC8668); experiment: Microtitre plate assay, IC90 for bacterial growth; type: cell-based; conditions: for IC90: Streptococcus, ATCC8668, 90% inhibitory concentration for bacterial growth, read-out: IC90 SPY 8668; for IC90 SPY 8668: 90% inhibitory concentration for bacterial growth
Method: as §1, §2, §3

[6] = test system: methicilline resistant Staphylococcus aureus (MRSA) (a clinical isolate from the University of Antwerp); experiment: Microtitre plate assay, IC90 for bacterial growth; type: cell-based; conditions: 90% inhibitory concentration for bacterial growth; for IC90: Staphylococcus aureus, MRSA, read-out: IC90 STA RMETHIC
Method: as §1, §2, §3

[7] = test system: Bacillus subtilis (ATCC43639); experiment: Microtitre plate assay, IC90 for bacterial growth; type: cell-based; conditions: for IC90 BSU 43639: 90% inhibitory concentration for bacterial growth; for IC90: Bacillus subtilis, ATCC43639, 90% inhibitory concentration for bacterial growth, read-out: IC90 BSU 43639
Method: as §1, §2, §3

[8] = test system: Listeria monocytogenes (ATCC49594); experiment: Microtitre plate assay, IC90 for bacterial growth; type: cell-based; conditions: for IC90 LMO 49594: 90% inhibitory concentration for bacterial growth; for IC90: Listeria monocytogenes, ATCC49594, 90% inhibitory concentration for bacterial growth, read-out: IC90 LMO 49594
Method: as §1, §2, §3

[9] = test system: Staphylococcus aureus (ATCC25923); experiment: Microtitre plate assay, IC90 for bacterial growth; type: cell-based; conditions: for IC90 STA 25923: 90% inhibitory concentration for bacterial growth; for IC90: Staphylococcus aureus, ATCC25923, 90% inhibitory concentration for bacterial growth, read-out: IC90 STA 25923
Method: as §1, §2, §3

[10] = test system: Streptococcus mutans (ATCC33402); experiment: Microtitre plate assay, IC90 for bacterial growth; type: cell-based; conditions: for IC90 SMU 33402: 90% inhibitory concentration for bacterial growth
Method: as §1, §2, §3

IC90 STA 29213 [1] | IC90 [2] | IC90 [3] | IC90 [1] | IC90 [5] | melting point | IC90 EFA 29212 [2] | IC90 PAE 27853 [3] | IC90 SPN 6305 [4] | IC90 SPY 8668 [5] | IC90 BSU 43639 [7] | IC90 LMO 49594 [8] | IC90 STA 25923 [9] | SMILES | IC90 [6] | IC90 STA RMETHIC [6] | other results
12.8 µg/mL (≈ 25.1 µM) |  |  |  |  |  |  |  |  |  |  |  |  | COc1nc2ccc(Cl)cc2cc1C(c1ccccc1)C1(c2cccc3ccccc23)CCN(C)CO1 (single isomer, unassigned) [Compound 3] |  |  | 
 | 1.8 µg/mL | 2 µg/mL | 2.3 µg/mL | 1.8 µg/mL | 228 °C |  |  |  |  |  |  |  | COc1nc2ccc(Br)cc2cc1C(c1ccccc1)C1(c2cccc3ccccc23)CC[N+](C)(C)CO1.[I-] (single isomer, unassigned) [Compound 18] | 2.3 µg/mL |  | IC90 [4]: 1.8 µg/mL
14.8 µg/mL (≈ 25.2 µM) |  |  |  |  | 201 °C | 14.8 µg/mL (≈ 25.2 µM) | 14.8 µg/mL (≈ 25.2 µM) | 14.8 µg/mL (≈ 25.2 µM) | 14.8 µg/mL (≈ 25.2 µM) |  |  |  | COc1nc2ccc(Br)cc2cc1C(c1ccc(Cl)cc1)C1(c2cccc3ccccc23)CCN(C)CO1 (single isomer, unassigned) [Compound 21] |  |  | 
48.9 µg/mL (≈ 100 µM) |  |  |  |  |  | 48.9 µg/mL (≈ 100 µM) | 48.9 µg/mL (≈ 100 µM) | 4.9 µg/mL (≈ 10 µM) | 19.5 µg/mL (≈ 39.9 µM) | 48.9 µg/mL (≈ 100 µM) | 48.9 µg/mL (≈ 100 µM) | 48.9 µg/mL (≈ 100 µM) | COc1nc2ccc(C)cc2cc1C(c1ccccc1)C1(c2cccc3ccccc23)CCN(C)CO1 (single isomer, unassigned) [Compound 11] |  | 48.9 µg/mL (≈ 100 µM) | IC90 SMU 33402 [10]: 48.9 µg/mL (≈ 100 µM)
 | 1.8 µg/mL | 3.7 µg/mL | 0.4 µg/mL | 1.8 µg/mL | 236 °C |  |  | 0.5 µg/mL |  |  |  |  | CC[N+]1(C)CCC(c2cccc3ccccc23)(C(c2ccccc2)c2cc3cc(Br)ccc3nc2OC)OC1.[I-] (single isomer, unassigned) [Compound 19] | 2.3 µg/mL |  | 
55.1 µg/mL (≈ 100 µM) |  |  |  |  |  | 55.1 µg/mL (≈ 100 µM) | 55.1 µg/mL (≈ 100 µM) | 5.5 µg/mL (≈ 9.99 µM) | 55.1 µg/mL (≈ 100 µM) | 55.1 µg/mL (≈ 100 µM) | 55.1 µg/mL (≈ 100 µM) | 55.1 µg/mL (≈ 100 µM) | COc1nc2ccc(-c3ccccc3)cc2cc1C(c1ccccc1)C1(c2cccc3ccccc23)CCN(C)CO1 (single isomer, unassigned) [Compound 2] |  | 55.1 µg/mL (≈ 100 µM) | 
12.7 µg/mL (≈ 25.2 µM) |  |  |  |  |  | 12.7 µg/mL (≈ 25.2 µM) | 12.7 µg/mL (≈ 25.2 µM) | 1.1 µg/mL (≈ 2.18 µM) | 10.1 µg/mL (≈ 20 µM) | 2.5 µg/mL (≈ 4.95 µM) | 10.1 µg/mL (≈ 20 µM) | 12.7 µg/mL (≈ 25.2 µM) | COc1ccc2nc(OC)c(C(c3ccccc3)C3(c4cccc5ccccc45)CCN(C)CO3)cc2c1 (single isomer, unassigned) [Compound 10] |  | 50.5 µg/mL (≈ 100 µM) | IC90 SMU 33402 [10]: 12.7 µg/mL (≈ 25.2 µM)
 | 55.1 µg/mL (≈ 100 µM) | 55.1 µg/mL (≈ 100 µM) | 55.1 µg/mL (≈ 100 µM) | 55.1 µg/mL (≈ 100 µM) |  |  |  |  |  |  |  |  | COc1nc2ccc(-c3ccccc3)cc2cc1C(c1ccccc1)C1(c2cccc3ccccc23)CCN(C)CO1 (single isomer, unassigned) [Compound 9] | 55.1 µg/mL (≈ 100 µM) |  | IC90 [7]: 55.1 µg/mL (≈ 100 µM); IC90 [8]: 55.1 µg/mL (≈ 100 µM); IC90 [9]: 55.1 µg/mL (≈ 100 µM); IC90 [4]: 4.9 µg/mL (≈ 8.9 µM)
 | 48.9 µg/mL (≈ 100 µM) | 48.9 µg/mL (≈ 100 µM) | 48.9 µg/mL (≈ 100 µM) |  |  |  |  | 10.9 µg/mL (≈ 22.3 µM) | 8.7 µg/mL (≈ 17.8 µM) |  |  |  | COc1nc2ccc(C)cc2cc1C(c1ccccc1)C1(c2cccc3ccccc23)CCN(C)CO1 (single isomer, unassigned) [Compound 5] | 48.9 µg/mL (≈ 100 µM) |  | IC90 [7]: 48.9 µg/mL (≈ 100 µM); IC90 [8]: 48.9 µg/mL (≈ 100 µM); IC90 [9]: 48.9 µg/mL (≈ 100 µM); IC90 ([10]; Streptococcus mutans, ATCC33402, 90% inhibitory concentration for bacterial growth, read-out: IC90 SMU 33402): 24.5 µg/mL (≈ 50.1 µM)
